The values below are quoted from earlier work in patent US9211237B2, “Film foaming hydroalcoholic foam” (STIEFEL RESEARCH AUSTRALIA PTY LTD, priority 2003, dated 2015).

The conditions of the data set: UV absorber.

Take `COc1ccc(C(=O)CC(=O)c2ccc(C(C)(C)C)cc2)cc1` [Parsol 1789, butyl methoxydibenzolymethane]: the maximum absorption is around 360 nm.
For the compound `CCCCC(CC)COC(=O)C=Cc1ccc(OC)cc1` (centres unmarked) [Parsol MCX, octinoxate], the maximum absorption was 308 nm.
